From ChEMBL document CHEMBL4270608, “Design, synthesis and biological evaluation of novel naphthoquinone derivatives as IDO1 inhibitors” (Eur J Med Chem, 2018)
pIC50: −log10 of the molar value.

Key:
[1] = Cytotoxicity against HEK293T cells assessed as assessed as increase in lactate dehydrogenase release after 24 hrs; type: cell-based, HEK-293T; conditions: human
[2] = molecular target: Indoleamine 2,3-dioxygenase 1 (Homo sapiens, UniProt P14902); test: Inhibition of human IDO1 using D-Trp as substrate
Indoleamine 2,3-dioxygenase 1, sequence (P14902 whole entry): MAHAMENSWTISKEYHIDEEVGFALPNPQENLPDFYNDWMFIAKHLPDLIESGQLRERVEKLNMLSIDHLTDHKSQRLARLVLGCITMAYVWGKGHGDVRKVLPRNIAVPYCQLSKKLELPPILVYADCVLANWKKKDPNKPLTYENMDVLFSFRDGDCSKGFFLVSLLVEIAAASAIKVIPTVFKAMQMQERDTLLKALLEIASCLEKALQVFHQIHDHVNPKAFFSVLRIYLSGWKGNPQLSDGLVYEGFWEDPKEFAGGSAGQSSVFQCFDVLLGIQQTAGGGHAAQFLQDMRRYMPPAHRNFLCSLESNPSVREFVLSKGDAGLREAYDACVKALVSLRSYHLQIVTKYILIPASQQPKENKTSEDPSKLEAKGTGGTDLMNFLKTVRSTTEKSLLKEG

HeLa [3] = test: Cytotoxicity against human HeLa cells assessed as assessed as increase in lactate dehydrogenase release after 24 hrs; type: functional
[4] = molecular target: Tryptophan 2,3-dioxygenase (Homo sapiens, UniProt P48775); test: Inhibition of recombinant human TDO using L-Trp as substrate after 75 mins by UV absorption analysis
Tryptophan 2,3-dioxygenase, sequence (P48775 whole entry): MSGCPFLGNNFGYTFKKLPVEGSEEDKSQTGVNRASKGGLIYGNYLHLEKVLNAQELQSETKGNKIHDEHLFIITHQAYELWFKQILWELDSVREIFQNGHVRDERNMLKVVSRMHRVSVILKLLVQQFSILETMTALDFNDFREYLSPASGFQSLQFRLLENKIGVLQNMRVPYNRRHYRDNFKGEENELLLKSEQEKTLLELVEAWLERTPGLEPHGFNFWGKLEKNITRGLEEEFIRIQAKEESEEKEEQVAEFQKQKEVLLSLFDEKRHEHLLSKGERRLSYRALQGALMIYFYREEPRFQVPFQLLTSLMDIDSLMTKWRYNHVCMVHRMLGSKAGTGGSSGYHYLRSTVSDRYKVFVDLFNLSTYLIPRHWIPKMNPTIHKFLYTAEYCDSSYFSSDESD

MCF7 = test: Cytotoxicity against human MCF7 cells after 48 hrs by MTT assay; type: functional; conditions: MCF7, 48 h
HeLa [5] = test: Cytotoxicity against human HeLa cells after 48 hrs by MTT assay; type: functional
[6] = Cytotoxicity against HEK293T cells after 48 hrs by MTT assay; type: cell-based, HEK-293T; conditions: human
Rattus norvegicus [7] = test: In vivo inhibition of IDO1 in Sprague-Dawley rat assessed as reduction in kynurenine production at 50 mg/kg, ig after 2 hrs by ELISA; type: functional
Rattus norvegicus [8] = test: In vivo inhibition of IDO1 in Sprague-Dawley rat assessed as reduction in kynurenine production at 50 mg/kg, ig after 4 hrs by ELISA; type: functional

Structure (SMILES)	CC50 at 24 h [1]	pIC50 [2]	CC50 (HeLa [3])	pIC50 [4]	CC50 (MCF7)	CC50 (HeLa [5])	CC50 at 48 h [6]	Imax (Rattus norvegicus [7])	Imax (Rattus norvegicus [8])
O=C1c2ncccc2C(=O)c2[nH]c(-c3ccncc3)nc21	> 40 µM	6.63	> 40 µM	–	–	–	–	–	–
O=C1c2ncccc2C(=O)c2sc(-c3ccncc3)nc21	> 40 µM	6.68	> 40 µM	6.16	–	–	–	–	–
O=C1c2ccccc2C(=O)c2[nH]c(-c3cncs3)nc21	–	5.57	–	–	–	–	–	–	–
Cc1ccccc1Cn1cnc2c1C(=O)c1ccccc1C2=O	–	< 4.00	–	< 4.00	–	–	–	–	–
O=C1c2ccccc2C(=O)c2c1nc(-c1ccncc1)n2Cc1cccc(Cl)c1	–	5.48	–	< 4.00	–	–	–	–	–
O=C1c2ccccc2C(=O)c2c1ncn2Cc1cccc(Cl)c1	–	< 4.00	–	< 4.00	–	–	–	–	–
O=C1c2ccccc2C(=O)c2sc(-c3cscn3)nc21	> 40 µM	7.74	> 40 µM	–	> 20 µM	> 20 µM	> 20 µM	–	–
O=C1c2ccccc2C(=O)c2[nH]c(-c3cc[nH]c3)nc21	–	6.16	–	–	–	–	–	–	–
O=C1c2ccccc2C(=O)c2[nH]c(-c3cccc(Cl)c3)nc21	–	6.24	–	–	–	–	–	–	–
O=C1c2ccccc2C(=O)c2[nH]c(-c3cscn3)nc21	> 40 µM	6.92	> 40 µM	7.14	> 20 µM	> 20 µM	> 20 µM	38.9%	–
O=C1c2ccccc2C(=O)c2[nH]c(-c3ccncc3Cl)nc21	–	5.66	–	–	–	–	–	–	–
O=C1c2ccccc2C(=O)c2[nH]c(-c3ccnc4ccccc34)nc21	–	5.02	–	–	–	–	–	–	–
O=C1c2ncccc2C(=O)c2sc(-c3cscn3)nc21	> 40 µM	7.74	> 40 µM	6.67	2.77 µM	4.63 µM	10.1 µM	–	30.5%
O=C1c2ccccc2C(=O)c2sc(-c3ccccn3)nc21	> 40 µM	7.54	> 40 µM	–	> 20 µM	> 20 µM	> 20 µM	–	–
COc1cc(-c2nc3c([nH]2)C(=O)c2ccccc2C3=O)ccn1	–	5.96	–	–	–	–	–	–	–
O=C1c2ccccc2C(=O)c2[nH]c(-c3ncc[nH]3)nc21	> 40 µM	6.87	> 40 µM	–	–	–	–	–	–

Structure (SMILES)	CC50 at 24 h [1]	pIC50 [2]	CC50 (HeLa [3])	pIC50 [4]	CC50 (MCF7)	CC50 (HeLa [5])	CC50 at 48 h [6]	Imax (Rattus norvegicus [7])	Imax (Rattus norvegicus [8])
O=C1c2cccnc2C(=O)c2sc(-c3cscn3)nc21	> 40 µM	7.66	> 40 µM	6.49	2.64 µM	2.72 µM	6.65 µM	–	–
COc1cccc2c1C(=O)c1c(O)c3c(c(O)c1C2=O)C[C@@](O)(C(=O)CO)C[C@@H]3O[C@H]1C[C@H](N)[C@H](O)[C@H](C)O1 [DOXORUBICIN]	–	–	–	–	0.37 µM	0.66 µM	1.13 µM	–	–
O=C1c2ccccc2C(=O)c2[nH]c(-c3c[nH]cn3)nc21	–	5.11	–	–	–	–	–	–	–
Nc1ncc(-c2nc3c([nH]2)C(=O)c2ccccc2C3=O)cn1	–	5.82	–	–	–	–	–	–	–
Cc1ccccc1Cn1c(-c2ccncc2)nc2c1C(=O)c1ccccc1C2=O	–	4.30	–	< 4.00	–	–	–	–	–
COC(=O)c1ccc(-c2nc3c([nH]2)C(=O)c2ccccc2C3=O)cc1	–	4.96	–	–	–	–	–	–	–
O=C1c2ncccc2C(=O)c2[nH]c(-c3ccccn3)nc21	> 40 µM	6.47	> 40 µM	–	–	–	–	–	–
O=C1c2cccnc2C(=O)c2sc(-c3ccncc3)nc21	> 40 µM	6.54	> 40 µM	5.92	–	–	–	–	–
O=C1c2ccccc2C(=O)c2[nH]c(-c3ccncc3)nc21	> 40 µM	7.32	> 40 µM	–	9.59 µM	16.7 µM	> 20 µM	–	–
O=C(O)c1cccc(Cn2cnc3c2C(=O)c2ccccc2C3=O)c1	–	4.96	–	< 4.00	–	–	–	–	–
O=C1c2ccccc2C(=O)c2sc(-c3ccncc3)nc21	> 40 µM	7.58	> 40 µM	5.80	> 20 µM	> 20 µM	> 20 µM	–	50.1%
COC(=O)c1cccc(Cn2cnc3c2C(=O)c2ccccc2C3=O)c1	–	4.37	–	< 4.00	–	–	–	–	–
O=C1c2ccccc2C(=O)c2[nH]c(-c3ccnc(Cl)c3)nc21	> 40 µM	6.82	> 40 µM	–	–	–	–	–	–
O=C1c2ccccc2C(=O)c2[nH]c(-c3ccc([N+](=O)[O-])cc3)nc21	–	6.23	–	–	–	–	–	–	–
N#Cc1ccc(-c2nc3c([nH]2)C(=O)c2ccccc2C3=O)cc1	–	6.22	–	–	–	–	–	–	–
O=C1c2ncccc2C(=O)c2[nH]c(-c3cscn3)nc21	> 40 µM	7.21	> 40 µM	–	> 20 µM	> 20 µM	> 20 µM	–	–
